Where only a bound is given, the exact number is not on record here.

The target of this test is T1, human apelin receptor (APJ, AGTRL-one, APLNR) (Homo sapiens, UniProt P35414).
T1 construct: host or cells: Chinese hamster ovary cells, stably integrated receptor
T1 sequence (P35414 1-380): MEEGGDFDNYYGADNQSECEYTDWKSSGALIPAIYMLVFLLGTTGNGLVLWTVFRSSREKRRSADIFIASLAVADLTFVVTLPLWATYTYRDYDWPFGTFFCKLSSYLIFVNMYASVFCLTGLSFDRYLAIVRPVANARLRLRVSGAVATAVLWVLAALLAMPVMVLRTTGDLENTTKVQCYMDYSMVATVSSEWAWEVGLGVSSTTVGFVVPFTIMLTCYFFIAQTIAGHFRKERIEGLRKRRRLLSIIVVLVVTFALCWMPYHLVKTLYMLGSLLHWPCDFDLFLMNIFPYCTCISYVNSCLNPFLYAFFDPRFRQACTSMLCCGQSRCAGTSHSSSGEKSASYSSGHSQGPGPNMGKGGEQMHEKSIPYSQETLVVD
The test is described as follows: cell-based cAMP TR-FRET assay of apelin receptor activation. Conditions: CHO cells expressing human APJ, forskolin-stimulated cAMP, 0.5 h incubation, 50% of control (apelin-13, 1 nM) response; read-out: Potency Category (EC50). As to the method:
The assays disclosed herein were performed using cell lines from DiscoveX, Inc. Biological activity was determined to the cell—based assay. This assay detects activation of the receptor by reporting on intracellular cyclic adenosine monophosphate (cAMP) level. Chinese hamster ovary cells engineered to express the stably integrated human apelin receptor (APJ, AGTRL—one, APLNR), pleaded into the wells of the microtiter plate. Cells were stimulated with […] to increase intracellular cyclic AMP. Immediately following, compounds were added to the range of final concentrations 0.0-100 μM, in DMSO (not to exceed a final DMSO concentration greater than 1% ν/ν), and allowed to incubate with the cells for 0.5 h. At the end of the incubation, cells were lysed to stop APJ signaling and cAMP was quantified using a commercially available competitive immunoassay kit that applies homogenous time—resolved florescence energy transfer (TR—FRET). The assay is based on the competition between a europium (Eu) chelate—labeled cAMP donor tracer and cellular cAMP for binding sites on a cAMP—specific monoclonal antibody labeled with an acceptor fluorophore. When antibodies are bound to the cAMP tracer light emissions at 320 nm stimulate the energy transfer from the donor to the acceptor, which in turn emits light at 665 nm. In the presence of competitive unlabeled cAMP (derived from the activity of the receptor or forskolin-stimulated production of cAMP), the labelled cAMP tracer is dissociated from the cAMP antibody, resulting in a loss of FRET signal. The amount of light emitted by the FRET is inversely proportional to the cAMP generated by the cell/receptor system. Potency and efficacy at APJ are reported in reference to the canonical APJ receptor agonist apelin—13 when tested at 1 nM. […] Compound efficacy (% response) is reported as a percentage of the maximal apein-13 response at 1 nM (control). Potencies were calculated by fitting a […] logistic curve to concentration response consisting of at least 10 discrete data points spanning effective range of the compounds in the cell-based assay that measures cAMP. […] Category B is 200-500 nM; Category C is 100-200 nM; Category D is 50-100 nM; and Category E is <50 nM.
For the molecule `CCS(=O)(=O)c1ccc(C(Nc2cccc(C)c2)C(=O)Nc2nc3cc(OC)c(OC)cc3s2)cc1` (stereo not shown), the EC50 – broadly, the concentration giving half of the maximal effect – is above 500 nM.
Then `COc1cc2nc(NC(=O)C(Oc3ccc(C#N)cc3)c3ccc(C(F)(F)F)cc3)sc2cc1OC` (stereo not shown), with above 500 nM.
Turning to `COc1cc2nc(NC(=O)C(Oc3ccc(C#N)cc3)c3ccc(S(=O)(=O)c4ccc(F)cc4)cc3)sc2cc1OC` (stereo not shown), the EC50 is 100 to 200 nM.
As to `COCCNC(=O)c1ccc(OC(C(=O)Nc2nc3cc(OC)c(OC)cc3s2)c2ccc(C#N)cc2)cc1` (stereo not shown), the EC50 is above 500 nM.
Next, `CCS(=O)(=O)c1cccc(C(Oc2ccc(OC)cc2)C(=O)Nc2nc3cc(OC)c(OC)cc3s2)c1` (stereo not shown): above 500 nM; `CCS(=O)(=O)c1ccc(C(Oc2cccc(C)c2)C(=O)Nc2nc3cc(OC)c(OC)cc3s2)cc1` (stereo not shown): above 500 nM.
Then `CCS(=O)(=O)c1ccc(C(Oc2ccc(OC)cc2)C(=O)Nc2nc3ccc4c(c3s2)OCO4)cc1` (stereo not shown), with above 500 nM; and `COCCOc1ccc(C(Oc2ccc(C#N)cc2)C(=O)Nc2nc3cc(OC)c(OC)cc3s2)cc1` (stereo not shown), with below 50 nM; and `CCS(=O)(=O)c1ccc(C(OCCC(C)C)C(=O)Nc2nc3cc(OC)c(OC)cc3s2)cc1` (stereo not shown), with above 500 nM.
Then `CCOc1c(OC)ccc2nc(NC(=O)C(Oc3ccc(C#N)cc3)c3ccc(S(=O)(=O)CC)cc3)sc12` (stereo not shown), with below 50 nM; and `COc1cc2nc(NC(=O)C(Oc3ccc(C(=O)N(C)C)cc3)c3ccc(C#N)cc3)sc2cc1OC` (stereo not shown), with below 50 nM; and `CCS(=O)(=O)c1ccc(C(Oc2ccc(OC)cc2)C(=O)Nc2nc3ccc4c(c3s2)OCCO4)cc1` (stereo not shown), with above 500 nM.
For `COc1cc2nc(NC(=O)C(Oc3ccc(C#N)cc3)c3ccccc3S(=O)(=O)C(C)C)sc2cc1OC` (stereo not shown), the EC50 fell in the range of 100 to 200 nM.
`CCS(=O)(=O)c1ccc(C(Oc2ccc(C#N)cc2)C(=O)Nc2nc3ccc4c(c3s2)OCCO4)cc1` (stereo not shown): the concentration giving a half-maximal response (EC50) was 50 to 100 nM.
Regarding `CCS(=O)(=O)c1ccc(C(Oc2ccc(C#N)c(F)c2)C(=O)Nc2nc3cc(OC)c(OC)cc3s2)cc1` (stereo not shown), the EC50 is below 50 nM.
For the molecule `COC(=O)c1cccc(CC(=O)Nc2nc3cc(OC)c(OC)cc3s2)c1`, the EC50 was above 500 nM.
With `CCS(=O)(=O)c1ccc(C(Oc2ccc(C#N)cc2)C(=O)Nc2nc3ccc(OC)cc3s2)cc1` (stereo not shown), the EC50 is above 500 nM.
Then `CCS(=O)(=O)c1ccc(C(Oc2ccc(C#N)cc2)C(=O)Nc2nc3cc(OC)c(OC)cc3n2C)cc1` (stereo not shown), with above 500 nM.
As to `CCS(=O)(=O)c1ccc(C(Oc2ccc(C#N)cc2)C(=O)Nc2nc3cc(C)c(OC)cc3s2)cc1` (stereo not shown), the EC50 is above 500 nM.
Next, `CCS(=O)(=O)c1ccc(C(OCC=C(C)C)C(=O)Nc2nc3cc(OC)c(OC)cc3s2)cc1` (stereo not shown): above 500 nM; `CCS(=O)(=O)c1ccc(C(Oc2ccc(C#N)cc2)C(=O)Nc2nc3cc(OCCN4CCOCC4)c(OC)cc3s2)cc1` (stereo not shown): above 500 nM; `COc1cc2nc(NC(=O)C(Oc3ccc(C#N)cc3)c3ccccc3S(=O)(=O)Cc3ccccc3)sc2cc1OC` (stereo not shown): below 50 nM.
Then `COc1cc2nc(NC(=O)C(Oc3ccc(C#N)cc3)c3cccc(S(=O)(=O)C(C)(C)C)c3)sc2cc1OC` (stereo not shown), with 50 to 100 nM; and `CCS(=O)(=O)c1ccc(C(Nc2ccccc2C)C(=O)Nc2nc3cc(OC)c(OC)cc3s2)cc1` (stereo not shown), with above 500 nM.
Next, `CCS(=O)(=O)c1ccc(C(Oc2ccc(F)cc2)C(=O)Nc2nc3cc(OC)c(OC)cc3s2)cc1` (stereo not shown): above 500 nM; `CCS(=O)(=O)c1ccc(CC(=O)Nc2nc3cc(OC)c(O)cc3[nH]2)cc1`: above 500 nM.
As to `COc1cc2nc(NC(=O)C(Oc3ccc(C(=O)O)cc3)c3ccc(C#N)cc3)sc2cc1OC` (stereo not shown), the EC50 was above 500 nM.
Then `CCS(=O)(=O)c1ccc(C(Oc2ccc(C#N)cc2)C(=O)Nc2nc3cc(OCc4ccccc4)c(OC)cc3s2)cc1` (stereo not shown), with above 500 nM; and `COc1cc2nc(NC(=O)C(Oc3ccc(C#N)cc3)c3ccc(OCCN4CCCCC4)cc3)sc2cc1OC` (stereo not shown), with 200 to 500 nM.
Then `CCS(=O)(=O)c1ccc(C(Oc2ccc(C#N)cc2)C(=O)Nc2nc3cc(OCCO)c(OC)cc3s2)cc1` (stereo not shown), with 200 to 500 nM.
Next, `COc1cc2nc(NC(=O)Cc3cccc(S(=O)(=O)C(C)C)c3)sc2cc1OC`: above 500 nM.
As to `CCS(=O)(=O)c1ccc(C(Oc2ccc(C(C)C)cc2)C(=O)Nc2nc3cc(OC)c(OC)cc3s2)cc1` (stereo not shown), the EC50 lay in the range of 200 to 500 nM.
On to `COc1cc2nc(NC(=O)Cc3cccc(S(=O)(=O)C4CCCC4)c3)sc2cc1OC`, for which the EC50 is above 500 nM.
Next, `CCS(=O)(=O)c1ccc(C(Oc2ccc(C#N)cc2)C(=O)Nc2nc3cc(OC)c(C)cc3s2)cc1` (stereo not shown): 200 to 500 nM; `CCCCS(=O)(=O)c1cccc(C(Oc2ccc(C#N)cc2)C(=O)Nc2nc3cc(OC)c(OC)cc3s2)c1` (stereo not shown): 50 to 100 nM; `CCS(=O)(=O)c1ccc(C(Oc2ccc(C#N)cc2F)C(=O)Nc2nc3cc(OC)c(OC)cc3s2)cc1` (stereo not shown): below 50 nM.
Then `CCS(=O)(=O)c1ccc(C(Oc2ccc(C3CCCC3)cc2)C(=O)Nc2nc3cc(OC)c(OC)cc3s2)cc1` (stereo not shown), with 200 to 500 nM.
Turning to `CCS(=O)(=O)c1ccc(C(Oc2ccc(C#N)cc2)C(=O)Nc2nc3cc(OC)c(Cl)cc3s2)cc1` (stereo not shown), the EC50 is above 500 nM.
On to `CCS(=O)(=O)c1ccc(C(Oc2ccc(C(=O)O)cc2)C(=O)Nc2nc3cc(OC)c(OC)cc3s2)cc1` (stereo not shown), for which the EC50 is above 500 nM.
Then `CCS(=O)(=O)c1ccc(C(Oc2ccc(I)cc2)C(=O)Nc2nc3cc(OC)c(OC)cc3s2)cc1` (stereo not shown), with 200 to 500 nM; and `CCS(=O)(=O)c1ccc(C(Oc2ccc(C(F)(F)F)cc2)C(=O)Nc2nc3cc(OC)c(OC)cc3s2)cc1` (stereo not shown), with 200 to 500 nM.
Regarding `CCS(=O)(=O)c1ccc(C(Oc2ccc(OC(F)(F)F)cc2)C(=O)Nc2nc3cc(OC)c(OC)cc3s2)cc1` (stereo not shown), the EC50 lay in the range of 200 to 500 nM.
As to `COc1cc2nc(NC(=O)C(Oc3ccc(C#N)cc3)c3ccc(S(=O)(=O)c4ccc(Cl)cc4)cc3)sc2cc1OC` (stereo not shown), the EC50 lay within 200 to 500 nM.
Next, `COc1cc2nc(NC(=O)C(Oc3ccc(C#N)cc3)c3ccc(C(=O)O)cc3)sc2cc1OC` (stereo not shown): above 500 nM; `CCCCS(=O)(=O)c1ccccc1C(Oc1ccc(C#N)cc1)C(=O)Nc1nc2cc(OC)c(OC)cc2s1` (stereo not shown): 200 to 500 nM.
Turning to `COc1cc2nc(NC(=O)C(Oc3ccc(C#N)cc3)c3cccc(Br)c3)sc2cc1OC` (stereo not shown), the EC50 was above 500 nM.
Then `COc1ccc(S(=O)(=O)c2ccccc2C(Oc2ccc(C#N)cc2)C(=O)Nc2nc3cc(OC)c(OC)cc3s2)cc1` (stereo not shown), with 100 to 200 nM.
Next, `COc1cc2nc(NC(=O)C(Oc3ccc(C#N)cc3)c3ccc(S(=O)(=O)NCCN(C)C)cc3)sc2cc1OC` (stereo not shown): below 50 nM; `CCS(=O)(=O)c1ccc(C(OCCOC)C(=O)Nc2nc3cc(OC)c(OC)cc3s2)cc1` (stereo not shown): above 500 nM.
As to `CCS(=O)(=O)c1ccc(C(OC2CCCCC2)C(=O)Nc2nc3cc(OC)c(OC)cc3s2)cc1` (stereo not shown), the EC50 is above 500 nM.
As to `CCOc1ccc(OC(C(=O)Nc2nc3cc(OC)c(OC)cc3s2)c2ccc(S(=O)(=O)CC)cc2)cc1` (stereo not shown), the EC50 lay within 200 to 500 nM.
For `CCS(=O)(=O)c1ccc(C(Oc2ccc(OC)cc2)C(=O)Nc2nc3ccc(OC)cc3s2)cc1` (stereo not shown), the EC50 is above 500 nM.
Next, `COc1cc2nc(NC(=O)C(Oc3ccc(C#N)cc3)c3ccc(S(=O)(=O)Cc4ccccc4)cc3)sc2cc1OC` (stereo not shown): 200 to 500 nM; `CCS(=O)(=O)c1ccc(C(Oc2ccc(C(=O)OC)cc2)C(=O)Nc2nc3cc(OC)c(OC)cc3s2)cc1` (stereo not shown): below 50 nM; `CCS(=O)(=O)c1ccc(C(Oc2ccc(C#N)c(C)c2)C(=O)Nc2nc3cc(OC)c(OC)cc3s2)cc1` (stereo not shown): 50 to 100 nM.

The values above are taken from US12071414B2, “Apelin receptor agonists and methods of use thereof” (Sanford Burnham Prebys Medical Discovery Institute, priority 2015, dated 2024).
